Test results as given in patent US20150238490A1 (Pharmacyclics, Inc., priority 2014, published 2015).
Entries after “also recorded” stand apart in the source; their conditions may differ.

Assays:
CLL patients = conditions: plasma, previous studies; cited from earlier work
[1] = tested on: DB cell line (GCB subtype DLBCL); assay: CCL3/CCL4 secretion by DLBCL cell line, supernatant ELISA; type: cell-based, human; conditions: 1 μM ibrutinib, supernatant after 24 h
Description: (§1) For BCR stimulation, culture medium was supplemented with 10 μg/mL anti-IgM (polyclonal goat F(ab′)2 fragments to human IgM, MP Biomedicals) for the indicated time periods.
(§2) All DLBCL cell lines were grown in RPMI 1640 medium (Hyclone) supplemented with glutamine, beta-mercaptoethanol, penicillin/streptomycin and 10% fetal bovine serum, except for OCI-Ly3 and OCI-Ly10, which were maintained in Iscove's modified Dulbecco's medium (Gibco) supplemented with beta-mercaptoethanol, penicillin/streptomycin and 20% heparinized human plasma. All cell lines were grown in a humidified 5% CO2 incubator at 37° C. DLBCL cell lines included TMD8, HBL-1, OCI-Ly10, OCI-Ly3, DB and OCI-Ly19.
(§3) Cell culture supernatant samples from DLBCL cell lines were used after 24 h for the measurement of CCL3 and CCL4 levels for quantification by ELISA using Quantikine Kits (R&D Systems). The absorbance was recorded by a microplate reader (ELx808, Bio-Tek Instruments), and data collection and analysis were performed using Gen5 software Version 1.08 (Bio-Tek Instruments).
(§4) Peripheral blood serum samples were obtained from the tissue bank of the Department of Lymphoma and Myeloma at MDACC or from the University of Nebraska Medical Center. All serum samples were aliquoted and stored at the time of initial referral to each institution. Serum and cell culture supernatant CCL3 and CCL4 levels were quantified by ELISA using Quantikine Kits (R&D Systems) and was conducted at MDACC (Sivina M, Hartmann E, Kipps T J, et al. “CCL3 (MIP-1alpha) plasma levels and the risk for disease progression in chronic lymphocytic leukemia.” Blood. 2011; 117(5):1662-1669.). The absorbance was recorded on a microplate reader (ELx808, Bio-Tek Instruments), and data collection and analysis were performed using Gen5 software Version 1.08 (Bio-Tek Instruments).

[2] = tested on: OCI-Ly10 cell line (ABC subtype DLBCL); assay: as above; type: cell-based, human; conditions: 1 μM ibrutinib, supernatant after 24 h
Description: as §1, §2, §3, §4

[3] = tested on: OCI-Ly3 cell line (ABC subtype DLBCL, CARD11 mutation); assay: as above; type: cell-based, human; conditions: 1 μM ibrutinib, supernatant after 24 h
Description: as §1, §2, §3, §4

[4] = tested on: HBL-1 cell line (ABC subtype DLBCL); assay: as above; type: cell-based, human; conditions: for mean supernatant concentration of CCL3: 24 h
Description: as §1, §2, §3, §4

[5] = tested on: TMD8 cell line (ABC subtype DLBCL); assay: as above; type: cell-based, human
Description: as §1, §2, §3, §4

[6] = tested on: OCI-Ly19 cell line (GCB subtype DLBCL); assay: as above; type: cell-based, human; conditions: 1 μM ibrutinib, supernatant after 24 h
Description: as §1, §2, §3, §4

DLBCL patients = assay: Serum CCL3 and CCL4 pre- and post-treatment in patients with DLBCL; type: in vivo, human; conditions: in most patients
Text: The study included 102 patients from MD Anderson Cancer Center (MDACC) with newly diagnosed DLBCL between January 2009 and February 2011 (MDA test cohort). In addition, a second set of 51 patients from MDACC with newly diagnosed DLBCL was included for validation analysis (MDA validation cohort). Nineteen patients with newly diagnosed DLBCL from the University of Nebraska were also included in the correlation analysis between serum CCL3/CCL4 levels and GCB vs. non-GCB subtype (Nebraska cohort). […] Demographics and other clinical parameters for both MDACC test and validation cohort were obtained at the time of initial referral to MDACC. DLBCL diagnosis was established by institutional pathologists according to the WHO classification. Immunophenotypic classification (GCB vs. non-GCB subtype) of DLBCL was determined by Hans criteria. […]
Peripheral blood serum samples were obtained from the tissue bank of the Department of Lymphoma and Myeloma at MDACC or from the University of Nebraska Medical Center. […] Serum and cell culture supernatant CCL3 and CCL4 levels were quantified by ELISA using Quantikine Kits (R&D Systems) and was conducted at MDACC (Sivina M, Hartmann E, Kipps T J, et al. “CCL3 (MIP-1alpha) plasma levels and the risk for disease progression in chronic lymphocytic leukemia.” Blood. 2011; 117(5):1662-1669.). […]

[7] = 1 μM ibrutinib, alone or with 10 μg/mL anti-IgM, supernatant after 24 h
[8] = ibrutinib titration (3.1-1000 nM) in combination with 10 μg αIgM

Structure (SMILES): CC[C@H](Nc1ncnc2[nH]cnc12)c1nc2cccc(F)c2c(=O)n1-c1ccccc1 [GS-1101/CAL-101/idelalisib]
- elevated CCL3 and CCL4 levels after pharmacologic inhibition of BCR signaling (CLL patients): rapidly normalize

Structure (SMILES): C=CC(=O)N1CCC[C@@H](n2nc(-c3ccc(Oc4ccccc4)cc3)c3c(N)ncnc32)C1 [ibrutinib, 1-((R)-3-(4-amino-3-(4-phenoxyphenyl)-1H-pyrazolo[3,4-d]pyrimidin-1-yl)piperidin-1-yl)prop-2-en-1-one]
- CCL3 level after ibrutinib treatment [1]: did not respond; also recorded: unaffected
- CCL4 level after ibrutinib treatment [1]: did not respond; also recorded: unaffected
- CCL3 level after ibrutinib treatment [2]: sensitive to inhibition; also recorded: significant decrease
- CCL4 level after ibrutinib treatment [2]: sensitive to inhibition; also recorded: significant decrease
- CCL3 level after ibrutinib treatment [3]: did not respond; also recorded: unaffected
- CCL4 level after ibrutinib treatment [3]: did not respond; also recorded: unaffected
- mean supernatant concentration of CCL3 ([4]; 1 μM ibrutinib alone (unstimulated cells), baseline 1705.5 pg/mL): 313.2 (±6.8) pg/mL
- mean supernatant concentration of CCL3 ([4]; 1 μM ibrutinib in combination with 10 μg/mL anti-IgM): 2029.16 (±26.9) pg/mL
- CCL3 level after ibrutinib treatment [4, 7]: abrogated; also recorded: significantly decreased
- CCL4 level after ibrutinib treatment [4, 7]: abrogated; also recorded: significantly decreased
- ibrutinib concentration resulting in the lowest CCL3 level [4, 8]: 500 nM
- ibrutinib concentration resulting in the lowest CCL4 level [4, 8]: 500 nM
- CCL3 level after ibrutinib treatment [5, 7]: abrogated; also recorded: significantly decreased
- CCL4 level after ibrutinib treatment [5, 7]: abrogated; also recorded: significantly decreased
- CCL3 level after BCR stimulation, ibrutinib titration ([5]; 1000 nM ibrutinib with 10 μg αIgM, decreased level maintained at 500 nM and 100 nM): decreased
- CCL4 level after BCR stimulation, ibrutinib titration ([5]; 1000 nM ibrutinib with 10 μg αIgM, decreased level maintained at 500 nM, 100 nM and 50 nM): decreased
- CCL3 level after ibrutinib treatment [6]: did not respond; also recorded: unaffected
- CCL4 level after ibrutinib treatment [6]: did not respond; also recorded: unaffected
- high concentrations of serum CCL3 and CCL4 after therapy (DLBCL patients): returned to low levels
